Columns and labels:
Format in all cases: in vivo, human
[1] = system: patients with confirmed symptomatic proximal DVT; experiment: Composite clinical outcome assessed by CAC (recurrent DVT, symptomatic PE or unexplained death), phase II study
Description: (§1) The study design is illustrated in FIG. 1.
(§2) Each treatment group was to consist of 130 patients, of which at least 100 patients eligible for inclusion in the Intent-To-Treat (ITT) group. Subjects in the SanOrg34006 treatment groups were to be followed-up during a four-week period after the final assessments.
(§3) Secondary efficacy parameters: change in thrombotic burden using a binary scale (i.e. deterioration versus no deterioration); change of CUS on a 3-point ordinal scale; change of PLS on a 3-point ordinal scale; the composite clinical outcome (non-fatal symptomatic PE and/or recurrent DVT, death due to PE and/or DVT or unexplained, and any important change in therapeutic management of thrombotic events); coagulation markers: plasma D-dimer (fibrin fragment, released in process of thrombolysis; measure for ongoing thrombosis) and TAT (Thrombin-Antithrombin Complex) concentrations during the study treatment. • Safety

[2] = system: patients with confirmed symptomatic proximal DVT; experiment: Bleeding events during randomized treatment, phase II study
Description: as §1, §2
Primary safety parameters: incidence of major bleeding and decreased platelet count.

[3] = Plasma concentrations / population pharmacokinetics of SanOrg34006, phase II study
Procedure: The secondary objective was to assess population pharmacokinetics of SanOrg34006.
Plasma concentrations of SanOrg34006 were assessed within 48 h prior to the administration of SanOrg34006 in Weeks 2, 4 and 7. In addition during Week 7 within the time frames 0.5-2 h, 2-6 h, 6-48 h and 120-168 h post dose. In a subset of patients a more extensive sampling scheme was applied with pre-dose samples before each administration and the serial scheme for Week 7 also applied to Week 1 and 12.

[4] = system: patients with confirmed symptomatic proximal DVT; experiment: Change in thrombotic burden assessed by central adjudication committee (CUS and PLS vs baseline), phase II study
Description: as §1, §2
Primary efficacy parameter: change in thrombotic burden as assessed by the central adjudication committee using a 3-point ordinal outcome scale for the comparison of CUS and PLS (Perfusion Lung Scan) after 12 weeks of randomized treatment with baseline measurements (i.e. deterioration, normalization, or no relevant change) including a supplementary analysis on substantial improvement.
as §3

[5] = system: patients with confirmed symptomatic proximal DVT; experiment: Tolerability: adverse events, laboratory parameters, vital signs, phase II study
Description: as §1, §2
Secondary efficacy parameters: (serious) adverse events, laboratory parameters (hematology, biochemistry, coagulation status, platelet counts), and vital signs (blood pressure, heart rate, body weight).

[6] = SanOrg34006 2.5 mg SC once weekly, 12 weeks, ITT (N = 125)
[7] = SanOrg34006 5 mg SC once weekly, 12 weeks, ITT (N = 128)
[8] = SanOrg34006 7.5 mg SC once weekly, 12 weeks, ITT (N = 118)
[9] = SanOrg34006 10 mg SC once weekly, 12 weeks, ITT (N = 119)
[10] = Week 12 vs first administration
[11] = oral warfarin, 12-week course, ITT (N = 124)
[12] = oral warfarin, all patients with randomized treatment (N = 132)

Structure (SMILES): CO[C@H]1O[C@H](COS(=O)(=O)O)[C@@H](O[C@@H]2O[C@@H](C(=O)O)[C@@H](O[C@H]3O[C@H](COS(=O)(=O)O)[C@@H](O[C@@H]4O[C@H](C(=O)O)[C@@H](O[C@H]5O[C@H](COS(=O)(=O)O)[C@@H](OC)[C@H](OC)[C@H]5OC)[C@H](OC)[C@H]4OC)[C@H](OS(=O)(=O)O)[C@H]3OS(=O)(=O)O)[C@H](OC)[C@H]2OC)[C@H](OS(=O)(=O)O)[C@H]1OS(=O)(=O)O [SanOrg34006, methyl O-(2,3,4-tri-O-methyl-6-O-sulfo-α-D-glucopyranosyl)-(1→4)-O-(2,3-di-O-methyl-β-D-glucopyranosyluronic acid)-(1→4)-O-(2,3,6-tri-O-sulfo-α-D-glucopyranosyl)-(1→4)-O-(2,3-di-O-methyl-α-L-idopyranosyluronic acid)-(1→4)-2,3,6-tri-O-sulfo-α-D-glucopyranoside]
- No fatal or non-fatal recurrent DVT, symptomatic PE or unexplained death (composite clinical outcome) [1, 6]: 125 (100.0) n (%)
- Yes: fatal or non-fatal recurrent DVT, symptomatic PE or unexplained death (composite clinical outcome) [1, 6]: 0 (0.0) n (%)
- No fatal or non-fatal recurrent DVT, symptomatic PE or unexplained death (composite clinical outcome) [1, 7]: 126 (98.4) n (%)
- Yes: fatal or non-fatal recurrent DVT, symptomatic PE or unexplained death (composite clinical outcome) [1, 7]: 2 (1.6) n (%)
- No fatal or non-fatal recurrent DVT, symptomatic PE or unexplained death (composite clinical outcome) [1, 8]: 118 (100.0) n (%)
- Yes: fatal or non-fatal recurrent DVT, symptomatic PE or unexplained death (composite clinical outcome) [1, 8]: 0 (0.0) n (%)
- No fatal or non-fatal recurrent DVT, symptomatic PE or unexplained death (composite clinical outcome) [1, 9]: 116 (97.5) n (%)
- Yes: fatal or non-fatal recurrent DVT, symptomatic PE or unexplained death (composite clinical outcome) [1, 9]: 3 (2.5) n (%)
- dose group outcome under stopping rule for major bleedings ([2]; in vivo): prematurely discontinued
- plasma concentrations relative to levels associated with an increased bleeding risk ([3]; 2.5 mg SanOrg34006): remained below the levels associated with an increased bleeding risk
- share of patient population with plasma levels 'too low' in terms of the ACCP guidelines ([3]; 2.5 mg dose group): 75%
- dose proportionality of pharmacokinetics ([3]; 2.5-10 mg once weekly): Dose-proportional
- AUC values at steady state relative to first administration [3, 10]: twice as high
- trough concentrations at steady state relative to first administration [3, 10]: three times as high
- anti-Xa activity corresponding with plasma trough levels ([3]; dose of 2.5 mg, once a week): 0.09-0.26 anti-Xa U/mL
- plasma trough levels (Cmin) ([3]; dose of 2.5 mg, once a week): 126 ± 63 ng/mL
- time at which steady state had been reached ([3]; once-weekly administration): Week 12
- Deterioration, overall change in thrombotic burden (2-point scale) [4, 6]: 6 (4.8) n (%)
- Deterioration, overall change in thrombotic burden (3-point scale) [4, 6]: 6 (4.8) n (%)
- No Deterioration, overall change in thrombotic burden (2-point scale) [4, 6]: 119 (95.2) n (%)
- No Relevant Change, overall change in thrombotic burden (3-point scale) [4, 6]: 87 (69.6) n (%)
- Normalization, overall change in thrombotic burden (3-point scale) [4, 6]: 32 (25.6) n (%)
- Deterioration, overall change in thrombotic burden (2-point scale) [4, 7]: 8 (6.3) n (%)
- Deterioration, overall change in thrombotic burden (3-point scale) [4, 7]: 8 (6.3) n (%)
- No Deterioration, overall change in thrombotic burden (2-point scale) [4, 7]: 120 (93.8) n (%)
- No Relevant Change, overall change in thrombotic burden (3-point scale) [4, 7]: 89 (69.5) n (%)
- Normalization, overall change in thrombotic burden (3-point scale) [4, 7]: 31 (24.2) n (%)
- Deterioration, overall change in thrombotic burden (2-point scale) [4, 8]: 8 (6.8) n (%)
- Deterioration, overall change in thrombotic burden (3-point scale) [4, 8]: 8 (6.8) n (%)
- No Deterioration, overall change in thrombotic burden (2-point scale) [4, 8]: 110 (93.2) n (%)
- No Relevant Change, overall change in thrombotic burden (3-point scale) [4, 8]: 81 (68.6) n (%)
- Normalization, overall change in thrombotic burden (3-point scale) [4, 8]: 29 (24.6) n (%)
- Deterioration, overall change in thrombotic burden (2-point scale) [4, 9]: 15 (12.6) n (%)
- Deterioration, overall change in thrombotic burden (3-point scale) [4, 9]: 15 (12.6) n (%)
- No Deterioration, overall change in thrombotic burden (2-point scale) [4, 9]: 104 (87.4) n (%)
- No Relevant Change, overall change in thrombotic burden (3-point scale) [4, 9]: 74 (62.2) n (%)
- Normalization, overall change in thrombotic burden (3-point scale) [4, 9]: 30 (25.2) n (%)
- efficacy compared with warfarin ([4]; SanOrg34006 doses tested): No differences in efficacy
- dose-response relationship for primary and secondary efficacy endpoints ([4]; tested doses 2.5-10 mg): No statistically significant dose-response relationship
- tolerability in terms of adverse events (other than bleeding events), laboratory parameters, and vital signs ([5]; in vivo): generally well tolerated

Structure (SMILES): CC(=O)CC(c1ccccc1)c1c(O)c2ccccc2oc1=O (centres unmarked) [Warfarin, warfarin, reference compound]
- Yes: fatal or non-fatal recurrent DVT, symptomatic PE or unexplained death (composite clinical outcome) [1, 11]: 2 (1.6) n (%)
- Any Bleeding during randomized treatment [2, 12]: 11 (8.3) n (%)
- Major Bleeding during randomized treatment [2, 12]: 1 (0.8) n (%)
- No Major Bleeding during randomized treatment [2, 12]: 131 (99.2) n (%)
- Deterioration, overall change in thrombotic burden (2-point scale) [4, 11]: 9 (7.3) n (%)
- Deterioration, overall change in thrombotic burden (3-point scale) [4, 11]: 9 (7.3) n (%)
- No Deterioration, overall change in thrombotic burden (2-point scale) [4, 11]: 115 (92.7) n (%)
- No Relevant Change, overall change in thrombotic burden (3-point scale) [4, 11]: 84 (67.7) n (%)
- Normalization, overall change in thrombotic burden (3-point scale) [4, 11]: 31 (25.0) n (%)
- tolerability in terms of adverse events (other than bleeding events), laboratory parameters, and vital signs ([5]; all SanOrg34006 doses, warfarin): generally well tolerated
